Read-outs that look alike come from different tables or passages of the source.
Key:
[1] = biological target: T1, human CD4 (CD4-YFP) expression in CHO•CD4-YFP cells (Homo sapiens, UniProt P01730); assay: CD4 down-modulation in CHO cells stably expressing CD4-YFP; assay type: cell-based; conditions: for DC50: read-out: IC50 CD4 (μM) mean ± SD, 50% down-modulation of CD4 expression, 24 h drug treatment
[2] = biological target: T1, human CD4 (CD4-YFP) expression in CHO•CD4-YFP cells; conditions: read-out: IC50 (CD4 down-modulation); cited from earlier work
[3] = stably CD4-YFP transfected CHO cells, n = 3, cyclohexylmethyl-tailed compounds
[4] = CD4-YFP transfected CHO cells, n ≥ 3, benzyl-tailed compounds

Row | SMILES | DC50 [1, 4] [µM] | other results
1 | C=C1CN(S(=O)(=O)c2ccc(C)cc2)CCCN(CC2CCCCC2)CCCN(S(=O)(=O)c2ccc(OCCCC)cc2)C1 [Compound 39, 1-(p-Butoxybenzenesulfonyl)-9-cyclohexylmethyl-3-methylene-5-(p-toluenesulfonyl)-1,5,9-triazacyclododecane] | – | DC50 [1, 3]: 1.1 ± 0.13 µM
2 | C=C1CN(S(=O)(=O)c2ccc(C)cc2)CCCN(Cc2ccccc2)CCCN(S(=O)(=O)c2cccc(N)c2)C1 [Compound 44] | 1.02 ± 0.09 | –
3 | C=C1CN(S(=O)(=O)c2ccc(C)cc2)CCCN(Cc2ccccc2)CCCN(S(=O)(=O)c2ccc(C)cc2)C1 [CADA, Cyclotriazadisulfonamide] | – | IC50 [2]: 0.4 µM
4 | C=C1CN(S(=O)(=O)c2ccc(C)cc2)CCCN(Cc2ccccc2)CCCN(S(=O)(=O)c2ccc(SC)cc2)C1 [Compound 41, 9-Benzyl-3-methylene-1-(p-thiomethoxybenzenesulfonyl)-5-(p-toluenesulfonyl)-1,5,9-triazacyclododecane] | 0.23 ± 0.05 | –
5 | C=C1CN(S(=O)(=O)c2ccc(C)cc2)CCCN(Cc2ccccc2)CCCN(S(=O)(=O)c2ccc(N(C)C)cc2)C1 [Compound 32] | 0.17 ± 0.08 | –
6 | C=C1CN(S(=O)(=O)c2ccc(C)cc2)CCCN(Cc2ccccc2)CCCN(S(=O)(=O)c2ccc(OC)cc2OC)C1 [Compound 30] | 1.35 ± 0.3 | –
7 | C=C1CN(C(=O)c2ccc(N)cc2)CCCN(Cc2ccccc2)CCCN(S(=O)(=O)c2ccc(C)cc2)C1.Cl [Compound 62] | > 50 | percentage CD4 down-modulation measured at highest (50 μM) compound concentration ([1]; 50 μM compound, CD4-YFP transfected CHO cells, 24 h): 15%
8 | C=C1CN(S(=O)(=O)c2ccc(C)cc2)CCCN(Cc2ccccc2)CCCN(S(=O)(=O)c2ccn(C)c2)C1 [Compound 36] | 3.17 ± 0.64 | –
9 | C=C1CN(S(=O)(=O)c2ccc(C)cc2)CCCN(CC2CCCCC2)CCCN(S(=O)(=O)c2ccc(OCCCN)cc2)C1 [Compound 54] | – | DC50 [1, 3]: > 50 µM
10 | C=C1CN(S(=O)(=O)c2ccc(C)cc2)CCCN(Cc2ccccc2)CCCN(S(=O)(=O)N2CCOCC2)C1 [Compound 63] | 1.08 ± 0.1 | –
11 | C=C1CN(S(=O)(=O)c2ccc(C)cc2)CCCN(CC2CCCCC2)CCCN(S(=O)(=O)c2ccc(N(C)C)cc2)C1 [Compound 40, 9-Cyclohexylmethyl-1-(p-(dimethylamino)benzenesulfonyl)-3-methylene-5-(p-toluenesulfonyl)-1,5,9-triazacyclododecane] | – | DC50 [1, 3]: 0.063 ± 0.005 µM
12 | C=C1CN(S(=O)(=O)c2ccc(C)cc2)CCCN(CC2CCCCC2)CCCN(S(=O)(=O)c2ccc(OC)cc2)C1 [Compound 1, reference compound] | – | DC50 [1, 3]: 0.15 ± 0.01 µM
13 | C=C1CN(S(=O)(=O)c2ccc(C)cc2)CCCN(Cc2ccccc2)CCCN(S(=O)(=O)c2ccc([N+](=O)[O-])cc2)C1 [Compound 27] | 5.25 ± 1.1 | –
14 | C=C1CN(C(=O)c2ccc([N+](=O)[O-])cc2)CCCN(Cc2ccccc2)CCCN(S(=O)(=O)c2ccc(C)cc2)C1 [Compound 60] | > 50 | –
15 | C=C1CN(S(=O)(=O)c2ccc(C)cc2)CCCN(Cc2ccccc2)CCCN(S(=O)(=O)c2ccc(OC)cc2)C1 [Compound 50, reference compound] | 0.29 ± 0.09 | –
16 | C=C1CN(S(=O)(=O)c2ccc(C)cc2)CCCN(Cc2ccccc2)CCCN(S(=O)(=O)c2ccc(OC)c(OC)c2)C1 [Compound 31] | 0.31 ± 0.06 | –
17 | C=C1CN(S(=O)(=O)c2ccc(C)cc2)CCCN(Cc2ccccc2)CCCN(S(=O)(=O)c2ccc(O)cc2)C1 [Compound 55] | 3.58 ± 0.54 | –
18 | C=C1CN(S(=O)(=O)c2ccc(C)cc2)CCCN(Cc2ccccc2)CCCN(S(=O)(=O)c2ccc(N)cc2)C1 [Compound 45] | 2.42 ± 0.42 | –
19 | C=C1CN(C(=O)c2ccc(C)cc2)CCCN(Cc2ccccc2)CCCN(S(=O)(=O)c2ccc(C)cc2)C1 [Compound 59] | 3.78 ± 2.38 | –
20 | C=C1CN(S(=O)(=O)c2ccc(C)cc2)CCCN(Cc2ccccc2)CCCN(S(=O)(=O)c2ccc(OC(=S)N(C)C)cc2)C1 [Compound 57] | 6.28 ± 2.04 | –

Row | SMILES | DC50 [1, 4] [µM] | other results
21 | C=C1CN(C(=O)c2ccc(OC)cc2)CCCN(Cc2ccccc2)CCCN(S(=O)(=O)c2ccc(C)cc2)C1 [Compound 58, 9-benzyl-3-methylene-5-(p-methoxybenzoyl)-1-(p-toluenesulfonyl)-1,5,9-triazacyclododecane] | 4.22 ± 0.84 | –
22 | C=C1CN(S(=O)(=O)c2ccc(C)cc2)CCCN(Cc2ccccc2)CCCN(S(=O)(=O)c2ccccc2N)C1 [Compound 43] | 2.12 ± 0.39 | –
23 | C=C1CN(S(=O)(=O)c2ccc(C)cc2)CCCN(CC2CCCCC2)CCCN(S(=O)(=O)c2ccc(OCCCN3C(=O)c4ccccc4C3=O)cc2)C1 [Compound 53] | – | DC50 [1, 3]: 0.75 ± 0.06 µM
24 | C=C1CN(S(=O)(=O)c2ccc(C)cc2)CCCN(CC2CCCCC2)CCCN(S(=O)(=O)c2ccc(-n3cccc3)cc2)C1 [Compound 47] | – | DC50 [1, 3]: 0.18 ± 0.01 µM
25 | C#CCOc1ccc(S(=O)(=O)N2CCCN(Cc3ccccc3)CCCN(S(=O)(=O)c3ccc(C)cc3)CC(=C)C2)cc1 [Compound 56] | 0.46 ± 0.07 | –
26 | C=C1CN(S(=O)(=O)c2ccc(C)cc2)CCCN(CC2CCCCC2)CCCN(S(=O)(=O)c2ccc(N3CCOCC3)cc2)C1 [Compound 48] | – | DC50 [1, 3]: 0.13 ± 0.01 µM
27 | C=C1CN(S(=O)(=O)c2ccccc2)CCCN(Cc2ccccc2)CCCN(S(=O)(=O)c2ccc(C)cc2)C1 [Compound 25, 1-(benzenesulfonyl)-9-benzyl-3-methylene-5-(p-toluenesulfonyl)-1,5,9-triazacyclododecane] | 1.46 ± 0.05 | –
28 | C=C1CN(S(=O)(=O)c2ccc(C)cc2)CCCN(Cc2ccccc2)CCCN(S(=O)(=O)c2cccc(N(C)C)c2)C1 [Compound 38] | 0.79 ± 0.1 | –
29 | C=C1CN(S(=O)(=O)c2ccc(C)cc2)CCCN(CC2CCCCC2)CCCN(S(=O)(=O)c2ccc(O)cc2)C1 [Compound 51, 9-Cyclohexylmethyl-1-(p-hydroxybenzenesulfonyl)-3-methylene-5-(p-toluenesulfonyl)-1,5,9-triazacyclododecane] | – | DC50 [1, 3]: 1.14 ± 0.02 µM
30 | C=C1CN(S(=O)(=O)c2ccc(C)cc2)CCCN(Cc2ccccc2)CCCN(S(=O)(=O)c2ccc3ccccc3c2)C1 [Compound 26] | 0.55 ± 0.17 | –
31 | C=C1CN(S(=O)(=O)c2ccc(C)cc2)CCCN(Cc2ccccc2)CCCN(S(=O)(=O)c2ccccc2[N+](=O)[O-])C1 [Compound 28] | 0.7 ± 0.09 | –
32 | C=C1CN(S(=O)(=O)c2ccc(C)cc2)CCCN(Cc2ccccc2)CCCN(S(=O)(=O)c2ccc3c(c2)OCO3)C1 [Compound 33] | 1.06 ± 0.12 | –
33 | C=C1CN(S(=O)(=O)c2ccc(C)cc2)CCCN(Cc2ccccc2)CCCN(S(=O)(=O)c2ccc(F)cc2)C1 [Compound 37] | 0.92 ± 0.11 | –
34 | C=C1CNCCCN(Cc2ccccc2)CCCN(S(=O)(=O)c2ccc(C)cc2)C1 [Compound 49, 9-Benzyl-3-methylene-1-(p-toluenesulfonyl)-1,5,9-triazacyclododecane] | > 50 | –
35 | C=C1CN(S(=O)(=O)c2ccc(C)cc2)CCCN(CC2CCCCC2)CCCN(S(=O)(=O)c2ccc(OCC)cc2)C1 [Compound 52] | – | DC50 [1, 3]: 0.19 ± 0.01 µM
36 | C=C1CN(S(=O)(=O)c2ccc(C)cc2)CCCN(Cc2ccccc2)CCCN(S(=O)(=O)c2ccc(OC(F)(F)F)cc2)C1 [Compound 29] | 1.2 ± 0.01 | –
37 | C=C1CN(C(=O)c2ccccc2)CCCN(Cc2ccccc2)CCCN(S(=O)(=O)c2ccc(C)cc2)C1 [Compound 61] | 7.32 ± 1.7 | –
38 | C=C1CN(S(=O)(=O)c2ccc(C)cc2)CCCN(CC2CCCCC2)CCCN(S(=O)(=O)c2ccc(N)cc2)C1 [Compound 46] | – | DC50 [1, 3]: 1 ± 0.15 µM
39 | C=C1CN(S(=O)(=O)c2ccc(C)cc2)CCCN(Cc2ccccc2)CCCN(S(=O)(=O)N(C)C)C1 [Compound 35] | 1.58 ± 0.2 | –
40 | C=C1CN(S(=O)(=O)c2ccc(C)cc2)CCCN(Cc2ccccc2)CCCN(S(=O)(=O)c2cccc([N+](=O)[O-])c2)C1 [Compound 34] | 2.02 ± 0.29 | –

Source: publication PMC7006954 (Journal of medicinal chemistry, 2016)
